Reference: ChEMBL document CHEMBL1201862, “PubChem BioAssay data set” (2004)
Calls of active or inactive are those of the source.

Key:
[1] = test system: HEK293; experiment: Fluorescence-based counterscreen for potentiators or agonists of NPY-Y2: cell-based high-throughput dose response assay to identify inhibitors of cyclic nucleotide gated ion channel (CNGC) activity. In this assay, the parental HEK293 cell line transfected with a cyclic-nucleotide gated ion channel (CNGC)-based cAMP sensor is used to measure inhibition of isoproterenol-induced CNGC activity by test compound.; assay type: functional; details: Homo sapiens;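 further: stimulus is 1 µM isoproterenol at EC100 plus PDE inhibitor Ro 20-1724 at 25 µM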
[2] = activation of miR-122 Renilla sensor silencing – cell-based, Huh7 psiCHECK-miR122, Renilla luciferase, cherry-picked, dose response (AID 651956); assay type: functional;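 further: huh7 hepatoma cells stably carrying a psiCHECK-2 miR-122 sensor plasmid; renilla luciferase signal reporting endogenous miR-122 activity after 48 h compound exposure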
[3] = Vero E6 cell cytotoxicity, dose response, cytotoxicity control for non-replicating M. tuberculosis project, secondary assay (AID 492998); assay type: functional, VeroE6; details: Vero C1008
[4] = target: T1, Microphthalmia-associated transcription factor (Homo sapiens, UniProt O75030); experiment: reducers of TRPM1 reporter luminescence, concentration series – cell-based, SK-MEL-5, cherry-picked, set 3, MITF inhibitor project, dose response (AID 493073); assay type: functional;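 further: SK-MEL-5 melanoma cells with luciferase driven by the MITF target TRPM1 promoter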
T1 sequence (O75030 whole entry): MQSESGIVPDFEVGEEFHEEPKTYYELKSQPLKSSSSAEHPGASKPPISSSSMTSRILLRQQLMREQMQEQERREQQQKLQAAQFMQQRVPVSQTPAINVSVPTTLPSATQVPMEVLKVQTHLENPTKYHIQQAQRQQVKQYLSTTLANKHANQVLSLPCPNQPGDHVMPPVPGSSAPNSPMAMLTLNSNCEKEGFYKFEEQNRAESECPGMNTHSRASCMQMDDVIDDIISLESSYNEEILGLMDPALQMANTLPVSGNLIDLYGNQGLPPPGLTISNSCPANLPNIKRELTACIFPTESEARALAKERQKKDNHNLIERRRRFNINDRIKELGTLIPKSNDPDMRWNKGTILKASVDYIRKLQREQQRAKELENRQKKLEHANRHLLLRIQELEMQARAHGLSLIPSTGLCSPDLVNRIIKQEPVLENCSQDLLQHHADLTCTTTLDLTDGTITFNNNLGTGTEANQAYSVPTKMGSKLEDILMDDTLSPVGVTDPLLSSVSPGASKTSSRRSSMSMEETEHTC

[5] = test system: Streptococcus sp. 'group A'; experiment: Streptococcus pyogenes SK(-)GAS viability under kanamycin – luminescence, BacTiterGlo, confirmation, counter-screen for streptokinase expression inhibitor project, dose response (AID 1900); assay type: functional, organism-based
[6] = viability of BHK-21 cells – cell-based, secondary screen, cytotoxicity control for flavivirus guanylyltransferase probe project (AID 624078); assay type: functional
[7] = test system: Vero; experiment: viability of Vero cells under compound – cytotoxicity control for flavivirus capping enzyme inhibitors (AID 588742); assay type: functional; details: Chlorocebus sabaeus
[8] = target: Genome polyprotein (dengue virus type 2, UniProt P29990); experiment: flavivirus cap methylation enzyme inhibition – biochemical, confirmation dose response, primary screen (AID 588689); assay type: functional
Chain of Genome polyprotein (P29990 2492-3391 limits assumed): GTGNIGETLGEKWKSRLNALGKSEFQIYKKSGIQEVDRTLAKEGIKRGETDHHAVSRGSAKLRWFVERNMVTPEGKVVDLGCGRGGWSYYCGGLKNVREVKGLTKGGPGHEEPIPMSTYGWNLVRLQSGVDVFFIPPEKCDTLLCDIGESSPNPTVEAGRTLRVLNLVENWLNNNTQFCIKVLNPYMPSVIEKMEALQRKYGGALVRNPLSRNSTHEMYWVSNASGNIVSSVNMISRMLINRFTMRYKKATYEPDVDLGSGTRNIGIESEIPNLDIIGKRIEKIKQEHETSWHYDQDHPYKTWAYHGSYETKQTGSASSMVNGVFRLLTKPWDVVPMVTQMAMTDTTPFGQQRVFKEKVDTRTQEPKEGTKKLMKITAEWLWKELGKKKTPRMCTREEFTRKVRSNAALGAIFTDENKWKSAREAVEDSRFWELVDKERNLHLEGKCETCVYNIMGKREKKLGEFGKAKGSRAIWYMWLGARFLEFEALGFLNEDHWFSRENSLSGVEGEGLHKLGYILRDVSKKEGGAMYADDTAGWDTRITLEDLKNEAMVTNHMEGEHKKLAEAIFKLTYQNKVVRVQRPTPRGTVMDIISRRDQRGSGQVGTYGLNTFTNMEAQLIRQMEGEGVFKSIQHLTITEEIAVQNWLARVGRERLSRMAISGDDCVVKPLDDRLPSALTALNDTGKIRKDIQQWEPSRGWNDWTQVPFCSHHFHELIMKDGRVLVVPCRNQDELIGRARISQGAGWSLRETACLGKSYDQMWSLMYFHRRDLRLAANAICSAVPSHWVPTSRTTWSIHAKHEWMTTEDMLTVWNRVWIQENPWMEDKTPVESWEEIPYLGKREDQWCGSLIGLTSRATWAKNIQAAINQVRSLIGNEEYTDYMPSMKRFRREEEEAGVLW

[9] = target: T2, RNA-binding protein pos-1 (Caenorhabditis elegans, UniProt G5EF15); experiment: disruptors of C. elegans POS-1 RNA interaction – biochemical, fluorescence polarization, dose response (AID 1964);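 further: purified POS-1 fused to maltose binding protein made in E. coli; potency of compounds blocking POS-1 binding to fluorescent RNA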
T2 sequence (G5EF15 whole entry): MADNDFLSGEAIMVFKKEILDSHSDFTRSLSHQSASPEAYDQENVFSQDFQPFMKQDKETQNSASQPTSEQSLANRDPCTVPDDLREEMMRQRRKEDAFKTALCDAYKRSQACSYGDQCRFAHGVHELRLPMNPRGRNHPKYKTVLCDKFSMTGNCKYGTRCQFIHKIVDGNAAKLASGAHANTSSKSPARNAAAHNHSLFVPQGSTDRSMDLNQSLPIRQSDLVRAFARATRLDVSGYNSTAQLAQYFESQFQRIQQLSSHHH

[10] = target: T3, Tyrosyl-DNA phosphodiesterase 2 (Homo sapiens, UniProt O95551); experiment: potency against TDP2 phosphodiesterase activity – biochemical, epi absorbance, IC50, dose response (AID 743297)
T3 sequence (O95551 whole entry): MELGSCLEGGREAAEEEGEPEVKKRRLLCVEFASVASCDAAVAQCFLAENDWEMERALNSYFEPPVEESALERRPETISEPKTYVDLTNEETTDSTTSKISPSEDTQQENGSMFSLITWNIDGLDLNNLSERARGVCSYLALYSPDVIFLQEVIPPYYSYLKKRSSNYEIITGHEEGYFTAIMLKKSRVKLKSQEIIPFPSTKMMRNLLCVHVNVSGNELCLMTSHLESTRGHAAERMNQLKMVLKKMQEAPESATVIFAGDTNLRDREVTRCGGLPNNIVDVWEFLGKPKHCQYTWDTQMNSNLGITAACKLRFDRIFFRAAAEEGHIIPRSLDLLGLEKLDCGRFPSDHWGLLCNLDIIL

[11] = target: T4, Sentrin-specific protease 8 (Homo sapiens, UniProt Q96LD8); assay type: functional;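 further: luminescence read-out of SENP8 inhibition, dose-response confirmation following an ultra-high-throughput screen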
T4 sequence (Q96LD8 whole entry): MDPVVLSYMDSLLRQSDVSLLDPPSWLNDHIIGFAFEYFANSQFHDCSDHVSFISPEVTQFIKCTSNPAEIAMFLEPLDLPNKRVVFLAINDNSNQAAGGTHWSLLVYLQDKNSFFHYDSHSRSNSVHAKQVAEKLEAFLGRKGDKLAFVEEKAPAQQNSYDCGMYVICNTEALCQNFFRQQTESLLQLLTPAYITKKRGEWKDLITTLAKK

[12] = target: T5, Rac GTPase-activating protein 1 (Homo sapiens, UniProt Q9H0H5); experiment: blockers of MgcRacGAP-driven Rac1 GTP hydrolysis – biochemical, ADP Hunter fluorescence, primary and confirmatory, confirmation (AID 624330); assay type: functional
T5 sequence (Q9H0H5 whole entry): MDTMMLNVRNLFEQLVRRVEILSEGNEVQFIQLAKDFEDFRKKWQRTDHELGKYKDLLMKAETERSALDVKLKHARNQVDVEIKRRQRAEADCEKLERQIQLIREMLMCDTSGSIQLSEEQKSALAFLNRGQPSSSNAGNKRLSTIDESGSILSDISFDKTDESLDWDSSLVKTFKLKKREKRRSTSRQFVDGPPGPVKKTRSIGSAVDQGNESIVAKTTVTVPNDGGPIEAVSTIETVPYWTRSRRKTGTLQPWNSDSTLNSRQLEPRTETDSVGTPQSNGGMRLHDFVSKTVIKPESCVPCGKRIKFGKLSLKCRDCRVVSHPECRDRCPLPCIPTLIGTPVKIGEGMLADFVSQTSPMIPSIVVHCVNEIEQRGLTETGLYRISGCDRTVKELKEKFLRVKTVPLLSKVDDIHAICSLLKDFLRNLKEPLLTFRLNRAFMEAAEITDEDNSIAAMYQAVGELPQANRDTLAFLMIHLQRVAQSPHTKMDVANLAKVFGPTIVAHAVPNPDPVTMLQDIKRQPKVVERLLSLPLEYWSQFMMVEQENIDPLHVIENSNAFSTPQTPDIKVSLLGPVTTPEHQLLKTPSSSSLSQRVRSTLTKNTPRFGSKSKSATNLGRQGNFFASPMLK

[13] = target: Sphingosine 1-phosphate receptor 1 (Homo sapiens, UniProt P21453); assay type: functional;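 further: Tango beta-arrestin reporter U2OS cells stimulated with S1P near its EC80; inhibitor potency meaning antagonism of receptor activation by the natural agonist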
Chain of Sphingosine 1-phosphate receptor 1 (P21453 whole entry): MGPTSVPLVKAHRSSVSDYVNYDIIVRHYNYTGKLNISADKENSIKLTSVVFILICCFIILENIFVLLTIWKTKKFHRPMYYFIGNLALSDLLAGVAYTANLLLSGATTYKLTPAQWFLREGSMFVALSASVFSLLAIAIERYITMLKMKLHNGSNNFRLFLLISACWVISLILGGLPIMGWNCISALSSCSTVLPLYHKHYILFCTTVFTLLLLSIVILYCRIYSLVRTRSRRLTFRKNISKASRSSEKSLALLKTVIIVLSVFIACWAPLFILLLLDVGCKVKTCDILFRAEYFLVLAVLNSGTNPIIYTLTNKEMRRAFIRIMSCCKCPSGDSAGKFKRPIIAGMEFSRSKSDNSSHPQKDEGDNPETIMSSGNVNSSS

O=C(CC(O)(C(F)(F)F)C(F)(F)F)Nc1ccc(Cl)c(Cl)c1
EC50 [1]: > 35.4 µM (not active)
AC50 [2]: 5.54 µM (active)

O=C(CNc1cccc2ccccc12)N/N=C/c1ccc([N+](=O)[O-])o1
CC50 [3]: > 20 µM (active)
AC50 [4]: 5.05 µM (active)
EC50 [5]: 0.901 µM (active)

O=C(O)CSc1cc(NS(=O)(=O)c2ccc(Br)cc2)c2ccccc2c1O
CC50 [6]: 7.81 µM (active)
CC50 [7]: 34 µM (active)
IC50 [8]: 7.66 µM (active)
EC50 [9]: 20.7 µM (active)
IC50 [10]: 37.2 µM (inactive)

O=C1NC(=S)N/C1=C/c1cc2c(cc1[N+](=O)[O-])OCO2
IC50 [11]: 9.01 µM (active)

Cc1ccc(NC(=O)C2=C(c3ccccc3)S(=O)(=O)CCS2(=O)=O)cc1
IC50 [8]: > 100 µM (active)
IC50 [12]: 97.4 µM (active)
IC50 [13]: 68.8 µM (not active)
